Test results as given in patent US11242335B2, “Fluorine-substituted indazole compounds and uses thereof” (SUNSHINE LAKE PHARMA CO., LTD., priority 2017, dated 2022).
pIC50: −log10 of the molar value.

How the values were obtained:
hERG potassium channel = biological target: T1, hERG potassium channel (Homo sapiens, UniProt Q12809); test: Inhibition of hERG potassium channel, manual patch clamp in HEK293 cells; type: cell-based; settings: hERG tail current; HEK293 cells overexpressing hERG; whole cell patch clamp; 22-24° C.
T1 construct: expressed in transfected cells; host or cells: HEK293
Experimental: Each compound was weighed and dissolved in DMSO and diluted with DMSO to a serial solution (30, 10, 3.3, 1.1, 0.37 mM). The above serial solutions were diluted to 1000-fold with the extracellular fluid to prepare test solutions (final concentration was 30, 10, 3.3, 1.1, 0.37 μM respectively).
The HEK293 cells that overexpressed the hERG potassium channel were cultured in a 37° C., 5% CO2 incubator, and the culture medium contained DMEM, 15% fetal bovine serum, and 1% penicillin-streptomycin. When the cell density reached 80% of the culture plate, the cells were digested with trypsin/EDTA and transferred to a centrifuge tube, centrifuged at 1000 rpm for 3 minutes, then supernatant was discarded, and the cell culture medium was added. The cells were mixed uniformly by gently blowing and beating. […]
The whole cell recording mode was used to record the channel current in the experiment. Firstly, the extracellular fluid was perfused (approximately 2 mL per minute) and the data were continuous recorded, and the current was kept steady (the current decay was less than 5% in 5 minutes). […] The extracellular fluid containing the test compound was then perfused and the data were continuous recorded until the compound's inhibitory effect on the hERG current reached a steady state, at this time point the peak value of tail current was the current value after dosing. […]

[1] = Pharmacokinetics in male SD rats after intravenous and oral administration; type: in vivo
Experimental: Preparation of test compound solution: The test compound was formulated with 5% dimethylsulfoxide, 5% Solutol HS 15 and 90% physiological saline to give solution, which was used for oral and intravenous administration.
Male SD rats weighing 190-250 g were randomly divided into two groups, each group had three members; one group received test compound at a dose of 1.0 mg/kg by intravenous injection, the other group received test compound at a dose of 2.5 or 5.0 mg/kg by oral. After dosing, blood samples were collected at time points of 0.0833, 0.25, 0.5, 1.0, 2.0, 4.0, 7.0 and 24 h. Standard curve was plotted based on concentrations of the samples in a suitable range, the concentrations of test compounds in plasma samples were determined by using AB SCIEX API4000 LC-MS/MS in MRM mode. Pharmacokinetic parameters were calculated according to drug concentration-time curve using a noncompartmental method by WinNonLin 6.3 software.

T1 sequence (Q12809 whole entry): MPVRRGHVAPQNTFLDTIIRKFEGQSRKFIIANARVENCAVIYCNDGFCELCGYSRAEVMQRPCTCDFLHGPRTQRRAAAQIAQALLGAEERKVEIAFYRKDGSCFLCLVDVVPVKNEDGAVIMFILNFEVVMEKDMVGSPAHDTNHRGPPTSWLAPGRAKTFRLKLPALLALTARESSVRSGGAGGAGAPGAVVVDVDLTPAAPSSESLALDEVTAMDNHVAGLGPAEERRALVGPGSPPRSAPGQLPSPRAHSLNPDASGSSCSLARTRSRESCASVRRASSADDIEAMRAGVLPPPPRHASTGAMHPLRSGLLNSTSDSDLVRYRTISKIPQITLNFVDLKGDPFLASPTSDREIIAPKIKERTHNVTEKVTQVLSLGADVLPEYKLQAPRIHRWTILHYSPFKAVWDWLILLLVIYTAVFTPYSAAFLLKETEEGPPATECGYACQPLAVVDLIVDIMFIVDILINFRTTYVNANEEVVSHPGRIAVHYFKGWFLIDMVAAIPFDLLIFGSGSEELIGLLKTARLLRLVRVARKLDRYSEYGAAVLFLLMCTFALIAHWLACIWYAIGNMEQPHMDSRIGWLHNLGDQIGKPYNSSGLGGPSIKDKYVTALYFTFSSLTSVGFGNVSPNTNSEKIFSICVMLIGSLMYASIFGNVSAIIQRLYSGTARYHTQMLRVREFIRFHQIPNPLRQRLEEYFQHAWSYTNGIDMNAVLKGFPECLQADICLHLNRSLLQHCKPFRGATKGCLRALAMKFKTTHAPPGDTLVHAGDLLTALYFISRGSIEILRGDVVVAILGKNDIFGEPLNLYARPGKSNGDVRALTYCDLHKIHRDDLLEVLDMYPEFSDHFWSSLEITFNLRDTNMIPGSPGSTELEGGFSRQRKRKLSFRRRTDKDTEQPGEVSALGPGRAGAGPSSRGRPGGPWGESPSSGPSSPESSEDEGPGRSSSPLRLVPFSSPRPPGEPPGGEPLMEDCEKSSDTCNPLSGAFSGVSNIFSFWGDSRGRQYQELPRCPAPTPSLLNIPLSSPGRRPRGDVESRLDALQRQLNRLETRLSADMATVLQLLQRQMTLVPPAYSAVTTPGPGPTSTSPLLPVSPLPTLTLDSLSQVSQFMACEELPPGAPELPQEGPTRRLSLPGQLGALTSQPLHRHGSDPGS

F ([1]; po 5 mg/kg versus iv 1 mg/kg): 99.6%
AUC(0-t) ([1]; rat, plasma, iv, 1 mg/kg): 7520 ng·h/mL
Cmax ([1]; rat, plasma, iv, 1 mg/kg): 1500 ng/mL
Tmax ([1]; rat, plasma, iv, 1 mg/kg): 0.083 h
clearance ([1]; rat, plasma, iv, 1 mg/kg): 2.21 mL/min/kg
half-life ([1]; rat, plasma, iv, 1 mg/kg): 3.54 h
Vd ([1]; rat, plasma, iv, 1 mg/kg, read-out: Vss): 0.63 L/kg
AUC(0-t) ([1]; rat, plasma, po, 5 mg/kg): 37500 ng·h/mL
Cmax ([1]; rat, plasma, po, 5 mg/kg): 3070 ng/mL
Tmax ([1]; rat, plasma, po, 5 mg/kg): 2 h
half-life ([1]; rat, plasma, po, 5 mg/kg): 4.34 h
SMILES: COC(=O)Nc1c(N)nc(-c2nn(Cc3ccccc3F)c3c(F)cccc23)nc1N [Example 10, methyl (4,6-diamino-2-(7-fluoro-1-(2-fluorobenzyl)-1H-indazol-3-yl)pyrimidin-5-yl)carbamate]
pIC50 (hERG potassium channel): 4.70
